Experimental data taken from patent publication US4241070A, “Analgesic benzomorphan derivatives” (priority 1975, dated 1980).
Counter-ions that a name gives are not always drawn. Like-named read-outs stand apart in the source and are kept apart here.

Key:
[1] = cited from earlier work
[2] = cited from earlier work; remark: listed apart in the source
[3] = tested on: typical syndrome produced by intraperitoneal injection of 0.6% aqueous acetic acid; assay: writhing test (acetic acid); assay type: in vivo, mice; conditions: for ED50: Mus musculus
Procedure: The test was based on the specific antagonism of the test compound to
typical syndrome produced by intraperitoneal injection of 0.6% aqueous
acetic acid. The syndrome was characterized by intermittent contractions
of the abdomen, twisting and turning of the trunk and extension of the
hind legs. A group of 5 mice was used for each dose level. The test
compound was administered 60 minutes before the injection of acetic acid
subcutaneously (sc) or orally (po).
pain response was recorded. The ED50 value was calculated according
to the LitchfieldWilcoxen's method.

[4] = abstinence syndrome test (body weight after drug withdrawal); conditions: for Abstinence syndrome: subcutaneous, twice a day, male rats, body weight decrease the day after withdrawal
Procedure: Groups of male rats of Wister strain (body weight, 150 g), each group
consisting of 20 male rats, were subcutaneously given the test compound
twice a day for 4 consecutive weeks. On the next day after drug
withdrawal, body weight was measured. The symbols have the following
meanings: +++, severe decrease (about 5% decrease); ++, moderate decrease
+, mild decrease; -, no decrease. A marked decrease is taken as an […]

[5] = sc, subcutaneous, 60 minutes before acetic acid, mice, Litchfield-Wilcoxen, read-out: ED50 SC
[6] = oral, 60 minutes before acetic acid, mice, Litchfield-Wilcoxen, read-out: ED50 PO

For `CC1C2Cc3ccc(O)cc3C1(C)CCN2CCCC(=O)c1ccc(F)cc1` (stereo not drawn) [2-[γ-(p-fluorobenzoyl)-propyl]-2'-hydroxy-5,9-dimethyl-6,7-benzomorphan], the “effectiveness by route of administration” value ([1]; 2-[γ-(p-fluorobenzoyl)-propyl]-2'-hydroxy-5,9-dimethyl-6,7-benzomorphan) is listed as “effective when administered parenterally rather than orally”, the analgesic activity ([1]; U.S. Pat. No. 3,833,595) is listed as “significant analgesic activity” and the drug addiction ([2]; U.S. Pat. No. 3,833,595) is listed as “without causing drug addiction”.
For `CN1CC[C@]23c4c5ccc(O)c4O[C@H]2[C@@H](O)C=C[C@H]3[C@H]1C5` [Morphine . hydrochloride, Morphine], the ED50 ([3]; po, read-out: ED50 PO) was 7 mg/kg and the ED50 ([3]; sc, read-out: ED50 SC) was 1.6 mg/kg.
In the case of `CC1C2Cc3ccc(O)cc3C1(C)CCN2C` (stereo not drawn) [2'-Hydroxy-2,5,9-trimethyl-6,7-benzomorphan], the analgesia ([1]; U.S. Pat. No. 3,138,603) is given as “potent analgesia”, the Abstinence syndrome ([4]; 20 mg/kg/day for 4 weeks) is given as “++” and the addiction liability ([2]; U.S. Pat. No. 3,138,603) is given as “has an addiction liability”.
Compound `CC(C)=CCN1CCC2(C)c3cc(O)ccc3CC1C2C` (stereo not drawn) [2'-hydroxy-5,9-dimethyl-2-(3"-methyl-2"-butenyl)-6,7-benzomorphan] has an ED50 [3, 5] of 17.6 mg/kg and an ED50 [3, 6] of 98 mg/kg.
With `Cc1ccc2c(c1)C1(C)CCN(CCCC(=O)c3ccc(F)cc3)C(C2)C1C` (stereo not drawn) [Example 1, 2-[γ-(p-Fluorobenzoyl)-propyl]-2',5,9-trimethyl-6,7-benzomorphan] the ED50 [3, 5] was 7.9 mg/kg, the ED50 [3, 6] was 9.6 mg/kg and the “analgesic effectiveness compared with pentazocine” value ([3]; oral and subcutaneous administration) was “more effective than pentazocine”. The Abstinence syndrome ([4]; 40 mg/kg/day for 4 weeks) was “-” and the addictive property ([4]; as shown in Table 2) was “did not exhibit any addictive property”.
